molecular target: T1, cloned human dopamine D3 receptors (Homo sapiens, UniProt P35462); assay: [N-Methyl-3H]Spiroperidol binding to cloned human dopamine D3 receptors; conditions: read-out: D3 Ki
T1 construct: expressed in transfected cells; membrane homogenate
Outline: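 Stably transfected CHO cells expressing cloned human D3 receptor were used as membranes homogenized in 10% DMSO. Ligand was [N-methyl-3H]spiroperidol displacement.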

T1 sequence (P35462 whole entry): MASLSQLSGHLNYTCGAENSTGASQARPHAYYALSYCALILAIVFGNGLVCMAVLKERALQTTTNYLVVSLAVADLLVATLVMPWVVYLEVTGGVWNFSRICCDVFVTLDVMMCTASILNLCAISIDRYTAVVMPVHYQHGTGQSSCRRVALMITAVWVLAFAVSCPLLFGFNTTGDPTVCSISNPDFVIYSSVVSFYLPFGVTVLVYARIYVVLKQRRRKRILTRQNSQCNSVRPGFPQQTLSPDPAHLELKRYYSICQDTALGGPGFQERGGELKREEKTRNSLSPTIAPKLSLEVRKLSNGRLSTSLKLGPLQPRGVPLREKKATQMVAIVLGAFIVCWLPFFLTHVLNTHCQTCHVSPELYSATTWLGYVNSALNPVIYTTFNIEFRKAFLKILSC

| Compound | Ki [µM] |
| --- | --- |
| O=C([C@@H]1C[C@H]1CN1CCN(c2csc3cc(C(F)(F)F)ccc23)CC1)N1CCC(n2ccnc2)CC1 [compound 833513] | 0.0431 |
| CC(C)(C)c1ccc(CN2CCN(C(=O)C3CC3CN3CCC(c4noc5ccsc45)CC3)CC2)cc1 (racemic) [compound 832157] | 0.000226 |
| O=C(NCCCN1CCCC1)[C@@H]1C[C@H]1CN1CCN(c2csc3cc(C(F)(F)F)ccc23)CC1 [compound 831887] | 0.0065 |
| CC1CCC(NC(=O)C2CC2CN2CCN(c3n[nH]c4cc(Cl)ccc34)CC2)CC1 (racemic) [compound 830124] | 0.00184 |
| C[C@H]1CC[C@H](NC(=O)[C@@H]2C[C@H]2CN2CCN(c3nn(-c4ccccc4)c4ccsc34)CC2)CC1 [compound 832849] | 0.00112 |
| O=C(NC1CCN(Cc2cc(F)cc(F)c2)CC1)[C@@H]1C[C@H]1CN1CCC(c2noc3ccsc23)CC1 [compound 833166] | 0.00172 |
| O=C(NCCCn1cnc2ccccc21)[C@@H]1C[C@H]1CN1CCN(c2csc3cc(C(F)(F)F)ccc23)CC1 [A002243384] | 0.133 |
| CC(C)N1CCN(C(=O)C2CC2CN2CCC(c3noc4ccsc34)CC2)CC1 (racemic) [compound 832188] | 0.0101 |
| COc1ccc2c(c1)c(N1CCN(C[C@@H]3C[C@H]3C(=O)NCCCn3ccnc3)CC1)nn2C [compound 831808] | 0.00384 |
| O=C(NC1CCN(CCc2cccc(Cl)c2)CC1)[C@@H]1C[C@H]1CN1CCC(c2noc3ccsc23)CC1 [compound 833748] | 0.00138 |
| COc1c(F)ccc2c(C3CCN(CCC4(C(=O)NCCCN5CCCCC5)CC4)CC3)noc12 [compound 833365] | 0.166 |
| CCC1CCC(NC(=O)C2CC2CN2CCC(c3noc4cc(Cl)ccc34)CC2)CC1 (racemic) [compound 829363] | 0.0639 |
| CN1CCN(CCCNC(=O)[C@@H]2C[C@H]2CN2CCC(c3nn(C)c4c(C(F)(F)F)cccc34)CC2)CC1 [A002439259] | 0.0391 |
| Cn1nc(C2CCN(C[C@@H]3C[C@H]3C(=O)N3CCC(N4CCCCC4)CC3)CC2)c2cccc(C(F)(F)F)c21 [compound 833091] | 0.118 |
| CCC1CCC(NC(=O)C2CC2CN2CCN(CCc3ccccc3)CC2)CC1 (racemic) [compound 827237] | 0.153 |
| O=C(NCCCn1ccnc1)C1(CCN2CCC(c3noc4ccsc34)CC2)CC1 [compound 832171] | 0.0049 |
| O=C(NCCCN1CCCCC1)[C@@H]1C[C@H]1CN1CCC(c2csc3cc(C(F)(F)F)ccc23)CC1 [compound 834015] | 0.00124 |
| CCC(C)OC(=O)n1cc(C2CCN(C[C@@H]3C[C@H]3C(=O)N3CCC[C@@H](Cn4ccnc4)C3)CC2)c2ccc(C(F)(F)F)cc21 (stereo partly drawn) [A002437355] | 0.00187 |
| Cn1nc(C2CCN(C[C@@H]3C[C@H]3C(=O)NCCCn3ccnc3)CC2)c2sccc21 [A002436291, 2R-[4-(1-Methyl-1H-thieno[3,2-c]pyrazol-3-yl)-piperidin-1-ylmethyl]-1R-cycloproanecarboxylic acid (3-imidazol-1-yl-propyl)-amide] | 0.000629 |
| O=C(NC1CCN(Cc2ccc(F)c(F)c2)CC1)[C@@H]1C[C@H]1CN1CCN(c2csc3cc(C(F)(F)F)ccc23)CC1 [compound 833512] | 0.00217 |
| O=C(N[C@H]1CC[C@H](O)CC1)[C@@H]1C[C@H]1CN1CCC(c2cc3ccccc3s2)CC1 [compound 831950] | 0.00548 |
| COc1c(F)ccc2c(C3CCN(C[C@@H]4C[C@H]4C(=O)NCCCc4ccccc4)CC3)noc12 [compound 831310] | 0.103 |

| Compound | Ki [µM] |
| --- | --- |
| CC(C)COC(=O)n1c(CCCNC(=O)C2CC2CN2CCC(c3noc4ccsc34)CC2)nc2ccccc21 (racemic) [compound 831621] | 0.0703 |
| O=C(NCCS(=O)(=O)c1cccc2c(Cl)cccc12)[C@@H]1C[C@H]1CN1CCC(c2noc3ccsc23)CC1 [compound 832528] | 0.0485 |
| O=C(NC1CCN(Cc2ccc(Cl)c(Cl)c2)CC1)[C@@H]1C[C@H]1CN1CCC(c2noc3ccsc23)CC1 [compound 832731] | 0.000699 |
| O=C(c1ccc(Cl)cc1)C1CCN(C(=O)[C@@H]2C[C@H]2CN2CCN(c3csc4cc(C(F)(F)F)ccc34)CC2)CC1 [compound 831882] | 0.0573 |
| CC[C@H]1CC[C@H](NC(=O)C2(CCN3CCC(c4noc5ccsc45)CC3)CC2)CC1 [832242A] | 0.436 |
| O=C(NCCCCc1cccnc1)C1CC1CN1CCC(c2noc3ccsc23)CC1 (racemic) [compound 831686] | 0.0253 |
| O=C(NC1CCN(Cc2cc(F)ccc2Cl)CC1)C1CC1CN1CCC(c2noc3ccsc23)CC1 (racemic) [compound 832346] | 0.0129 |
| CC(C)(C)OC(=O)N1CCN(CCNC(=O)[C@@H]2C[C@H]2CN2CCN(c3csc4cc(C(F)(F)F)ccc34)CC2)CC1 [compound 833277] | 0.0167 |
| COCCN1CCN(C(=O)C2CC2CN2CCC(c3noc4ccsc34)CC2)CC1 (racemic) [compound 832190] | 0.0946 |
| COc1ccc2c(c1)c(N1CCN(C[C@@H]3C[C@H]3C(=O)NC[C@@H]3CCNC3)CC1)nn2C [compound 833632] | 0.00406 |
| O=C([C@@H]1C[C@H]1CN1CCC(c2noc3c(C(F)(F)F)cccc23)CC1)N1CCC[C@@H](Cn2ccnc2)C1 [A002437360, (3S-Imidazol-1-ylmethyl-piperidin-1-yl)-{2R-[4-(7-trifluoromethyl-benzo[d]isoxazol-3-yl)-piperidin-1-ylmethyl]-1R-cyclopropyl}-methanone] | 0.000239 |
| O=C(NC1CCN(Cc2ccc(Cl)c(Cl)c2)CC1)C1CC1CN1CCC(c2noc3ccsc23)CC1 (racemic) [compound 831998] | 0.00746 |
| O=C(Cc1ccccc1)NNC(=O)C1CC1CN1CCC(c2noc3ccsc23)CC1 (racemic) [compound 831452] | 0.115 |
| Cn1nc(C2CCN(C[C@@H]3C[C@H]3C(=O)N[C@H]3CC[C@H](O)CC3)CC2)c2cccc(C(F)(F)F)c21 [compound 833080] | 0.0229 |
| O=C([C@@H]1C[C@H]1CN1CCC(c2noc3ccsc23)CC1)N1CCC(n2ccnc2)CC1 [compound 833164] | 0.0525 |
| Cc1ccc2c(c1)c(C1CCN(C[C@@H]3C[C@H]3C(=O)NC3C4CCC3CN(C)C4)CC1)nn2C (stereo partly drawn) [A002328940] | 0.0268 |
| CCN1CCN(C(=O)N2CCC(NC(=O)C3CC3CN3CCC(c4noc5ccsc45)CC3)CC2)C(=O)C1=O (racemic) [compound 832489] | 0.095 |
| O=C(NCC1CCNCC1)[C@@H]1C[C@H]1CN1CCC(c2nn(-c3ccccc3)c3ccsc23)CC1 [A002440436A] | 0.0114 |
| O=C(N[C@H]1CC[C@H](O)CC1)[C@@H]1C[C@H]1CN1CCN(c2nn(-c3ccc(C(F)(F)F)cc3)c3ccsc23)CC1 [compound 832648] | 0.0208 |
| CN1CCN(CCCNC(=O)[C@@H]2C[C@H]2CN2CCN(c3nn(C)c4ccsc34)CC2)CC1 [A002329040] | 0.16 |
| Cn1nc(C2CCN(C[C@@H]3C[C@H]3C(=O)N3CCC[C@@H](Cn4ccnc4)C3)CC2)c2ccc(C(F)(F)F)cc21 [A002437353, (3S-Imidazol-1-ylmethyl-piperidin-1-yl)-{2R-[4-(1-methyl-6-trifluoromethyl-1H-indazol-3-yl)-piperidin-1-ylmethyl]-1R-cyclopropyl}-methanone] | 0.000937 |
| Cn1nc(C2CCN(C[C@@H]3C[C@H]3C(=O)N[C@H]3CC[C@H](C)CC3)CC2)c2ccc(Br)cc21 [compound 833693] | 0.0184 |

same assay, conditions: read-out: d3Ki

| Compound | Ki [µM] |
| --- | --- |
| CCN(C(=O)CCCN1CCCN(c2csc3cc(F)ccc23)CC1)C1CCCCC1 [compound 826829] | 0.0015 |

Reference: US7772252B2, “Heterocyclic substituted carbonyl derivatives and their use as dopamine D3 receptor ligands” (Aventis Pharmaceuticals Inc., priority 2001, dated 2010)
